Structures are written as SMILES. Where “and” joins values, the source holds several entries; their conditions need not be identical. Identical values can stand only once. Entries after “also recorded” stand apart in the source; their conditions may differ. Like-named read-outs stand apart in the source and are kept apart here.

A word on the EC50: it is the concentration that produces a half-maximal response. High values mean lower potency in that assay, low ones higher potency in that assay. As a reminder, the Emax is the maximal effect, on the per cent scale that the assay sets.

For series [1] the following is noted: rat, cited from earlier work.
For the next series, the system named is mice. The note with it: mouse, in vivo.
For a further series, the target named is T1, human CB2 receptor (Homo sapiens, UniProt P34972).
T1 construct: expressed in transfected cells; host or cells: CHO cells
Description: Efficacy and potency at the human CB2 receptor expressed in CHO cells (cAMP, forskolin). In kind it is cell-based.

T1 sequence (P34972 whole entry): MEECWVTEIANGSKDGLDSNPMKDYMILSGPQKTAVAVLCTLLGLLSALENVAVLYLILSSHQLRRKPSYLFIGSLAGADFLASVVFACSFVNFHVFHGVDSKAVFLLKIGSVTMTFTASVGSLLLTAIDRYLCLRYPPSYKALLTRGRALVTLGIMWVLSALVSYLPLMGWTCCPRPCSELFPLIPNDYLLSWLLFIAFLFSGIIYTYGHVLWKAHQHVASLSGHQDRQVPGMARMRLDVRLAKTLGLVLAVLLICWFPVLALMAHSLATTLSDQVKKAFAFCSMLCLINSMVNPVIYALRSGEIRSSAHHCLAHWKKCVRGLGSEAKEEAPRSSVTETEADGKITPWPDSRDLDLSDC

Regarding `Cc1c(C(=O)c2cccc3ccccc23)c2cccc3c2n1[C@H](CN1CCOCC1)CO3` [WIN55, 212-2], in series [1] (Dyson et al 2005), the brain-to-plasma ratio is 1.3-1.9.

As to `COc1ccc2c3c1O[C@H]1[C@@H](O)C=C[C@H]4[C@@H](C2)N(C)CC[C@@]341` [Codeine, reference compound], in the series with mice (iv), the “% of MPE” value was 44.2% and the “Tail flick latency (s) + s.e.m. at Tmax” value is listed as 6.95 ± 0.84 s.

As for `C=C(C)[C@@H]1CCC(C)=C[C@H]1c1c(O)cc(CCCCC)cc1O` [cannabidiol], in series [1] (Alozie et al 1980), the brain-to-plasma ratio is listed as 2.61.

For `Cl.O=C(NCCO)[C@H]1CCCN(Cc2nc(-c3cn(CC4CCS(=O)(=O)CC4)c4c(Cl)cccc34)ns2)C1` [Compound 2, (S)-7-Chloro-3-[(5-{[3-N-(2-hydroxyethyl)carboxamido]piperidin-1-yl}methyl)([1,2,4]-thiadiazol-3-yl)]-1-(1,1-dioxo-hexahydrothiopyran-4-yl)methyl-1H-indole, hydrochloride salt], the “combination versus opioid on its own (in words)” value in the series on mice was “significantly different”. Moreover, the “time of maximum effect post-injection” value with mice (iv) came to 20 min. Besides, the “effect of co-administration on tail flick latency (in words)” value in the series with mice (iv, hydrochloride salt) was “increased tail flick latency in a dose-dependent manner; also recorded: dose-dependent potentiation”.

On human CB2 receptor, `CCOC(=O)c1c(C)cc2nc(COC(=O)NCCO)n(-c3ccccc3S(=O)(=O)NC)c(=O)c2c1C` [Compound 1a, 2-(2-Hydroxy-ethylcarbamoyloxymethyl)-5,7-dimethyl-3-(2-methylsulfamoylphenyl)-4-oxo-3,4-dihydro-quinazoline-6-carboxylic acid ethyl ester] yielded an EC50 of 3.5 nM. This compound also came in with an Emax at human CB2 receptor (CHO, relative to maximal response (100%) obtained with CP 55940, human CB2) of 107%. In addition, in the series on mice, the “effect on tail flick latency (in words)” value is “had no effect on tail flick latency”. In addition, in the series on mice (iv), the “effect on tail flick latency (in words)” value is “had no effect on tail flick latency; also recorded: did not increase the tail flick latency” and the “time of maximum effect post-injection” value was 40 min.

Consider `CCCCCc1cc(O)c2c(c1)OC(C)(C)[C@@H]1CCC(C)=C[C@@H]21` [Δ^9THC, Δ^9-tetrahydrocannabinol], for which the brain-to-plasma ratio in series [1] (Alozie et al 1980) is on record as 0.96; in series [1] (Dyson et al 2005), 1.0.

Turning to `CN1CC[C@]23c4c5ccc(O)c4O[C@H]2[C@@H](O)C=C[C@H]3[C@H]1C5` [morphine, reference compound], the “% of MPE” value with mice (iv) is 47.7% and 42.9%.

With `CCCCCc1cc(O)c2c(c1)OC(C)(C)c1ccc(C)cc1-2` [cannabinol], in series [1] (Alozie et al 1980), the brain-to-plasma ratio is recorded as 0.88.

(Values after patent US20090029984A1 (priority 2005, published 2009).)
